Source: PubChem BioAssay (NCI)
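Exposure lasted 48 hours, with cells grown in 96-well plates and compounds tested at five concentrations. Here, GI50 denotes the concentration required for 50% inhibition of growth. Definition used: TGI = concentration required for complete inhibition of growth.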

Tests used:
Test in all cases: DTP human tumour cell line panel, 48 h
[1] = system: HCT-116 colon
[2] = system: A498 renal
[3] = system: MDA-MB-435
[4] = system: UACC-62 melanoma
[5] = system: CAKI-1 renal
[6] = system: NCI-H226 lung
[7] = system: SW-620 colon
[8] = system: OVCAR-5 ovarian
[9] = system: SR leukemia
[10] = system: HOP-92 NSCLC
[11] = system: NCI/ADR-RES ovarian
[12] = system: NCI-H522 lung
[13] = system: OVCAR-8 ovarian
[14] = system: PC-3 prostate
[15] = system: IGROV1 ovarian
[16] = system: RPMI-8226 leukemia
[17] = system: MCF7 breast
[18] = system: UO-31 renal
[19] = system: SNB-19 CNS
[20] = system: NCI-H460 lung
[21] = system: LOX IMVI melanoma
[22] = system: OVCAR-3 ovarian
[23] = system: OVCAR-4 ovarian
[24] = system: MOLT-4 leukemia
[25] = system: K-562 leukemia
[26] = system: CCRF-CEM leukemia
[27] = system: MALME-3M melanoma
[28] = system: NCI-H23 lung
[29] = system: RXF 393 renal
[30] = system: MDA-MB-231 breast
[31] = system: HCT-15 colon
[32] = system: SK-MEL-28 melanoma
[33] = system: HCC-2998 colon
[34] = system: SK-MEL-5 melanoma
[35] = system: UACC-257 melanoma
[36] = system: COLO 205 colon
[37] = system: HOP-62 NSCLC
[38] = system: A549 NSCLC
[39] = system: BT-549 breast
[40] = system: HS 578T breast
[41] = system: T-47D breast
[42] = system: SK-MEL-2 melanoma
[43] = system: 786-0 renal
[44] = system: SF-268 CNS
[45] = system: ACHN renal
[46] = system: HT29 colon
[47] = system: KM12 colon
[48] = system: M14 melanoma
[49] = system: SF-539 CNS
[50] = system: TK-10 renal
[51] = system: U251 CNS
[52] = system: HL-60(TB) leukemia
[53] = system: SN12C renal
[54] = system: SK-OV-3 ovarian
[55] = system: EKVX NSCLC
[56] = system: SNB-75 CNS
[57] = system: DU-145 prostate
[58] = system: SF-295 CNS

With COc1cc(-c2cc(/C=C/C(=O)c3ccc(Cl)c(Cl)c3)[nH]n2)cc(OC)c1OC the GI50 [1] was 2.95 µM, the TGI [1] was 21.5 µM and the GI50 [2] was 5.89 µM. For the same compound, the TGI [2] was 43 µM, the GI50 [3] was 5.65 µM and the TGI [3] was > 100 µM. For the same compound, the GI50 [4] was 18.8 µM, the TGI [4] was > 100 µM and the GI50 [5] was 16.9 µM. The TGI [5] was > 100 µM, the GI50 [6] was 18.6 µM and the TGI [6] was > 100 µM. It also gave a GI50 [7] of 8.63 µM, a TGI [7] of 79.6 µM and a GI50 [8] of 20.5 µM. The TGI [8] was > 100 µM, the GI50 [9] was 0.393 µM and the TGI [9] was 13.5 µM. It also gave a GI50 [10] of 2.53 µM, a TGI [10] of 8.25 µM and a GI50 [11] of 10.6 µM. For the same compound, the TGI [11] was > 100 µM, the GI50 [12] was 1.33 µM and the TGI [12] was 3.04 µM. It also gave a GI50 [13] of 6.3 µM, a TGI [13] of 34 µM and a GI50 [14] of 5.96 µM. For the same compound, the TGI [14] was > 100 µM, the GI50 [15] was 24 µM and the TGI [15] was > 100 µM. The GI50 [16] was 0.538 µM, the TGI [16] was 6.73 µM and the GI50 [17] was 1.8 µM. The TGI [17] was > 100 µM, the GI50 [18] was 5.73 µM and the TGI [18] was > 100 µM. For the same compound, the GI50 [19] was 9.83 µM, the TGI [19] was > 100 µM and the GI50 [20] was 4.91 µM. It also gave a TGI [20] of 36.6 µM, a GI50 [21] of 3.39 µM and a TGI [21] of 16.4 µM. It also gave a GI50 [22] of 6.99 µM, a TGI [22] of 37.8 µM and a GI50 [23] of 10.8 µM. For the same compound, the TGI [23] was 50.9 µM, the GI50 [24] was 4.38 µM and the TGI [24] was 40.6 µM. It also gave a GI50 [25] of 4.96 µM, a TGI [25] of 64.4 µM and a GI50 [26] of 2.15 µM. The TGI [26] was 23.5 µM, the GI50 [27] was 29.2 µM and the TGI [27] was > 100 µM. The GI50 [28] was 23.4 µM, the TGI [28] was > 100 µM and the GI50 [29] was 2.7 µM. For the same compound, the TGI [29] was 12.8 µM, the GI50 [30] was 8.65 µM and the TGI [30] was > 100 µM. The GI50 [31] was 4.29 µM, the GI50 [32] was 18.1 µM and the TGI [32] was 66 µM. It also gave a GI50 [33] of 9.56 µM, a TGI [33] of 31.4 µM and a GI50 [34] of 13.4 µM. The TGI [34] was 46.9 µM, the GI50 [35] was 16.3 µM and the TGI [35] was 74 µM. For the same compound, the GI50 [36] was 1.26 µM, the TGI [36] was 15.8 µM and the GI50 [37] was 1.72 µM. The TGI [37] was 7.66 µM, the GI50 [38] was 18.7 µM and the TGI [38] was > 100 µM. The GI50 [39] was 8.4 µM, the TGI [39] was 29.2 µM and the GI50 [40] was 16.6 µM. The TGI [40] was > 100 µM, the GI50 [41] was 1.66 µM and the TGI [41] was 15.7 µM. For the same compound, the GI50 [42] was 13.9 µM, the TGI [42] was 34.1 µM and the GI50 [43] was 10.1 µM. It also gave a TGI [43] of 68 µM, a GI50 [44] of 13.7 µM and a TGI [44] of 63.3 µM. For the same compound, the GI50 [45] was 21.4 µM, the TGI [45] was > 100 µM and the GI50 [46] was 11.5 µM. For the same compound, the TGI [46] was > 100 µM, the GI50 [47] was 3.37 µM and the TGI [47] was > 100 µM. For the same compound, the GI50 [48] was 18.2 µM, the TGI [48] was > 100 µM and the GI50 [49] was 4.31 µM. It also gave a TGI [49] of 18.7 µM, a GI50 [50] of 8.34 µM and a TGI [50] of 43.2 µM. For the same compound, the GI50 [51] was 8.7 µM, the TGI [51] was 80.5 µM and the GI50 [52] was 7.18 µM. The TGI [52] was 36.7 µM, the GI50 [53] was 13.7 µM and the TGI [53] was > 100 µM. The GI50 [54] was 4.19 µM and the TGI [54] was 18.8 µM.
For Oc1cccc(/C=N/Nc2nnc(N/N=C/c3cccc(O)c3)c3ccccc23)c1, the TGI [1] was 43.1 µM, the TGI [3] was 81 µM and the TGI [4] was 30.2 µM. It also gave a TGI [5] of 83.3 µM, a TGI [6] of 30.7 µM and a TGI [7] of 56.8 µM. The TGI [8] was > 100 µM, the TGI [9] was 7.06 µM and the TGI [10] was 76.1 µM. The TGI [11] was 60.1 µM, the TGI [12] was 53.1 µM and the TGI [13] was 18.1 µM. For the same compound, the TGI [14] was 44.4 µM, the TGI [15] was 47.7 µM and the TGI [16] was 92.2 µM. The TGI [17] was > 100 µM, the TGI [55] was 43.6 µM and the TGI [18] was 52 µM. For the same compound, the TGI [19] was > 100 µM, the TGI [20] was > 100 µM and the TGI [21] was 34.1 µM. It also gave a TGI [22] of 35.8 µM, a TGI [23] of 82.6 µM and a TGI [24] of 6.43 µM. The TGI [25] was 47.6 µM, the TGI [26] was 88.3 µM and the TGI [27] was 57.3 µM. The TGI [28] was 48.6 µM, the TGI [29] was > 100 µM and the TGI [30] was 35.8 µM. The TGI [56] was 50.5 µM, the TGI [31] was 39 µM and the TGI [32] was 60.2 µM. For the same compound, the TGI [34] was 8.86 µM, the TGI [35] was > 100 µM and the TGI [36] was > 100 µM. For the same compound, the TGI [37] was 33 µM, the TGI [38] was 57.5 µM and the TGI [39] was 44.8 µM. For the same compound, the TGI [40] was 52.9 µM, the TGI [57] was 66 µM and the TGI [41] was 61.8 µM. The TGI [42] was 83.6 µM, the TGI [43] was 38.5 µM and the TGI [44] was > 100 µM. The TGI [58] was 31.8 µM, the TGI [45] was 40.7 µM and the TGI [46] was > 100 µM. For the same compound, the TGI [47] was > 100 µM, the TGI [48] was > 100 µM and the TGI [49] was 34.6 µM. For the same compound, the TGI [50] was 50.9 µM, the TGI [51] was 29.6 µM and the TGI [53] was 30.5 µM. The TGI [54] was > 100 µM.
With O=C(O)CN1CCN(CC(=O)N2CCN(C(=O)OCc3ccccc3)CC2)CCN(CC(=O)O)CCN(CC(=O)N2CCN(C(=O)OCc3ccccc3)CC2)CC1 the TGI [1] was > 100 µM, the TGI [2] was > 100 µM and the TGI [3] was > 100 µM. The TGI [4] was > 100 µM, the TGI [5] was > 100 µM and the TGI [6] was > 100 µM. For the same compound, the TGI [7] was > 100 µM, the TGI [8] was > 100 µM and the TGI [9] was > 100 µM. For the same compound, the TGI [10] was > 100 µM, the TGI [11] was > 100 µM and the TGI [12] was > 100 µM. The TGI [13] was > 100 µM, the TGI [14] was > 100 µM and the TGI [15] was > 100 µM. For the same compound, the TGI [16] was > 100 µM, the TGI [17] was > 100 µM and the TGI [55] was > 100 µM. For the same compound, the TGI [18] was > 100 µM, the TGI [19] was > 100 µM and the TGI [20] was > 100 µM. The TGI [21] was > 100 µM, the TGI [22] was > 100 µM and the TGI [23] was > 100 µM. The TGI [24] was > 100 µM, the TGI [25] was > 100 µM and the TGI [26] was > 100 µM. The TGI [27] was > 100 µM, the TGI [30] was > 100 µM and the TGI [56] was > 100 µM. The TGI [31] was > 100 µM, the TGI [32] was > 100 µM and the TGI [33] was > 100 µM. The TGI [34] was > 100 µM, the TGI [35] was > 100 µM and the TGI [36] was > 100 µM. The TGI [37] was > 100 µM, the TGI [38] was > 100 µM and the TGI [39] was > 100 µM. The TGI [40] was > 100 µM, the TGI [57] was > 100 µM and the TGI [41] was > 100 µM. For the same compound, the TGI [42] was > 100 µM, the TGI [43] was > 100 µM and the TGI [58] was > 100 µM. The TGI [45] was > 100 µM, the TGI [46] was > 100 µM and the TGI [47] was > 100 µM. The TGI [48] was > 100 µM, the TGI [49] was > 100 µM and the TGI [50] was > 100 µM. For the same compound, the TGI [51] was > 100 µM, the TGI [52] was > 100 µM and the TGI [53] was > 100 µM. For the same compound, the TGI [54] was > 100 µM.
